# Measurements: patent US11946094B2, “Combination therapies and methods of use thereof” (Augusta University Research Institute, Inc., priority 2017, dated 2024)
# Where a name gives a salt, the structure may show the parent alone.
# Test system: OVCAR-8 cells
# Assay: Drug-siRNA combination screen: 346-compound anticancer library at 100 nM, CCK-8 viability
# Details: not given
row,Structure (SMILES),Score (sum of observed SD values for 18 genes) [SD]
1,Cc1ccc(C(=O)Nc2ccc(CN3CCN(C)CC3)c(C(F)(F)F)c2)cc1C#Cc1cnc2cccnn12 [Ponatinib],−28.62
2,CC[C@H](CO)Nc1nc(NCc2ccccc2)c2ncn(C(C)C)c2n1 [Seliciclib],−1.72
3,CCCC(=O)[O-].[Na+] [Sodium butyrate],−16.25

# Same assay, conditions: OVCAR-8; drug 100 nM plus siRNA knockdown of each of 18 genes; distance VAB−VA×VB in SD; single gene contributes at most +5 / −5; negative = synergy, positive = antagonism
row,Structure (SMILES),Score (sum of observed SD values for 18 genes) [SD]
1,CC(=O)c1c(C)c2cnc(Nc3ccc(N4CCNCC4)cn3)nc2n(C2CCCC2)c1=O [Palbociclib],−30.45
2,COc1ccc(COc2cc3oc(=O)c4cc(C(C)O)ccc4c3cc2OC)cc1 (centres unmarked) [Palomid 529],11.53
3,NCCC(O)(P(=O)(O)O)P(=O)(O)O [Pamidronate Disodium],−2.39
4,CCOc1cc2ncc(C#N)c(Nc3ccc(F)c(Cl)c3)c2cc1NC(=O)/C=C/CN(C)C [Pelitinib],-54.75
5,O=C(CCc1ccc(O)cc1)c1c(O)cc(O)cc1O [Phloretin],−16.21
6,CCc1ccc(CCOc2ccc(CC3SC(=O)NC3=O)cc2)nc1 (centres unmarked) [Pioglitazone],−37.6
7,Nc1cccc2c1C(=O)N(C1CCC(=O)NC1=O)C2=O (centres unmarked) [Pomalidomide],−3.4
8,CCCCc1nc2cc(/C=C/C(=O)NO)ccc2n1CCN(CC)CC [Pracinostat],−43.48
9,C[C@]12C=CC(=O)C=C1CC[C@@H]1[C@@H]2C(=O)C[C@@]2(C)[C@H]1CC[C@]2(O)C(=O)CO [Prednisone],−20.64
10,O=c1c(O)c(-c2ccc(O)c(O)c2)oc2cc(O)cc(O)c12 [Quercetin],−5.63
11,CC(C)(C)c1cc(NC(=O)Nc2ccc(-c3cn4c(n3)sc3cc(OCCN5CCOCC5)ccc34)cc2)no1 [Quizartinib],−12.85
12,COc1cc(Nc2ncc(F)c(Nc3ccc4c(n3)NC(=O)C(C)(C)O4)n2)cc(OC)c1OC [R406],−28.54
13,O=C(O)C(Cc1c[nH]c2ccccc12)N1C(=O)c2ccccc2C1=O (centres unmarked) [RG108],−0.52
14,Cc1nc2ccc(CN(C)c3ccc(C(=O)N[C@@H](CCC(=O)O)C(=O)O)s3)cc2c(=O)[nH]1 [Raltitrexed],44.53
15,COc1ccccc1OCC(O)CN1CCN(CC(=O)Nc2c(C)cccc2C)CC1 (centres unmarked) [Ranolazine],−11.08
16,CNC(=O)c1cc(Oc2ccc(NC(=O)Nc3cc(C(C)(C)C)nn3-c3ccc4ncccc4c3)c(F)c2)ccn1 [Rebastinib],17.66
17,CNC(=O)c1cc(Oc2ccc(NC(=O)Nc3ccc(Cl)c(C(F)(F)F)c3)c(F)c2)ccn1 [Regorafinib],3.75
18,COc1cc(OC)c(/C=C/S(=O)(=O)Cc2ccc(OC)c(NCC(=O)O)c2)c(OC)c1 [Rigosertib],6.43
19,CN(CCOc1ccc(CC2SC(=O)NC2=O)cc1)c1ccccn1 (centres unmarked) [Rosiglitazone],−27.32
20,CNCc1ccc(-c2[nH]c3cc(F)cc4c3c2CCNC4=O)cc1 [Rucaparib],−3.34

row,Structure (SMILES),Score (sum of observed SD values for 18 genes) [SD]
1,Cn1cc(C2=C(c3ccc(Cl)cc3Cl)C(=O)NC2=O)c2ccccc21 [SB216763],−11.62
2,CN(C)CCOc1ccc(-c2nc(-c3ccncc3)c(-c3ccc4c(c3)CC/C4=N\O)[nH]2)cc1 [SB590885],27.34
3,C[S+]([O-])c1ccc(-c2nc(-c3ccc(F)cc3)c(-c3ccncc3)[nH]2)cc1 (centres unmarked) [SB 203580],−40.85
4,NC(=O)c1ccc(-c2nc(-c3ccccn3)c(-c3ccc4c(c3)OCO4)[nH]2)cc1 [SB 431542],−30.82
5,Cc1cccc(-c2[nH]c(C(C)(C)C)nc2-c2ccc3nccnc3c2)n1 [SB 525334],−32.05
6,Cc1ccc(C(=O)N(CCCN)[C@@H](c2oc3cc(Cl)ccc3c(=O)c2Cc2ccccc2)C(C)C)cc1 [SB 743921],−4.09
7,CN1CCC(CNc2ccc3ncc(-c4cccc(OC(F)(F)F)c4)n3n2)CC1 [SGI - 1776],−12.21
8,Cn1cc(-c2ccc3nnc(Sc4ccc5ncccc5c4)n3n2)cn1 [SGX-523],−8.5
9,CC(C)(C)c1cnc(CSc2cnc(NC(=O)C3CCNCC3)s2)o1 [SNS-032],-62.71
10,O=C(Nc1ccccc1-c1cn2c(CN3CCNCC3)csc2n1)c1cnc2ccccc2n1 [SRT1720],−34.27
11,Cc1cccc(Nc2nc(-c3ccncc3)cs2)c1 [STF-62247],−24.47
12,Cc1[nH]c(/C=C2\C(=O)Nc3ccc(S(=O)(=O)N(C)c4cccc(Cl)c4)cc32)c(C)c1C(=O)N1CCN(C)CC1 [SU11274],−0.42
13,CC[C@@H](C(=O)[C@@H](C)[C@@H](O)[C@H](C)[C@@H]1O[C@@H]([C@@H](CC)C(=O)O)CC[C@@H]1C)[C@H]1O[C@]2(C=C[C@@H](O)[C@]3(CC[C@@](C)([C@H]4CC[C@](O)(CC)[C@H](C)O4)O3)O2)[C@H](C)C[C@@H]1C [Salinomycin],−21.61
14,CN1CCN(CCOc2cc(OC3CCOCC3)c3c(Nc4c(Cl)ccc5c4OCO5)ncnc3c2)CC1 [Saracatinib],-53.14
15,Cn1cnc2c(F)c(Nc3ccc(Br)cc3Cl)c(C(=O)NOCCO)cc21 [Selumetinib],-63.99
16,c1ccc2c(CCNc3ccc(Nc4ccncc4)cc3)c[nH]c2c1 [Serdemetan],−29.35
17,O=C(O)c1ccc2c(c1)nc(Nc1cccc(Cl)c1)c1ccncc12 [Silmitasertib],−4.51
18,CCC(C)(C)C(=O)O[C@H]1C[C@@H](C)C=C2C=C[C@H](C)[C@H](CC[C@@H]3C[C@@H](O)CC(=O)O3)[C@H]21 [Simvastatin],−20.34
19,CC(NC(=O)c1ccccc1/N=C/c1c(O)ccc2ccccc12)c1ccccc1 (centres unmarked) [Sirtinol],−2.18
20,CCCC(CCC)C(=O)[O-].[Na+] [Sodium valproate],−17.88

row,Structure (SMILES),Score (sum of observed SD values for 18 genes) [SD]
1,CN1CCN(c2nc(C3=C(c4c[nH]c5ccccc45)C(=O)NC3=O)c3ccccc3n2)CC1 [Sotrastaurin],−16.11
2,COc1cc(N2CCC(N3CCN(C)CC3)CC2)ccc1Nc1ncc(Cl)c(Nc2ccccc2S(=O)(=O)C(C)C)n1 [TAE684],−35.61
3,Cn1c(=O)c(F)c(Nc2ccc(I)cc2F)c2c(=O)n(C[C@@H](O)CO)cnc21 [TAK-733],−40.08
4,NC(=O)Nc1sc(-c2ccc(F)cc2)cc1C(N)=O [TPCA-1],4.7
5,CC(C)c1ccccc1Cc1cc(C(=O)Nc2ccc(S(=O)(=O)c3ccccc3C(C)(C)C)cc2)c(O)c(O)c1O [TW-37],−36.72
6,COc1cc2c(N3CCN(C(=O)Nc4ccc(OC(C)C)cc4)CC3)ncnc2cc1OCCCN1CCCCC1 [Tandutinib],−14.99
7,CNC(=O)c1cc(COc2nnc(Nc3ccc(Cl)cc3)c3ccoc23)ccn1 [Telatinib],−5.24
8,CO[C@H]1C[C@@H]2CC[C@@H](C)[C@@](O)(O2)C(=O)C(=O)N2CCCC[C@H]2C(=O)O[C@H]([C@H](C)C[C@@H]2CC[C@@H](OC(=O)C(C)(CO)CO)[C@H](OC)C2)CC(=O)[C@H](C)/C=C(\C)[C@@H](O)[C@@H](OC)C(=O)[C@H](C)C[C@H](C)/C=C/C=C/C=C/1C [Temsirolimus],-56.85
9,COc1cc2nccc(Oc3ccc(NC(=O)Nc4cc(C)on4)c(Cl)c3)c2cc1OC [Tivozanib],−16.34
10,C[C@@H]1CCN(C(=O)CC#N)C[C@@H]1N(C)c1ncnc2[nH]ccc12 [Tofacitinib],−13.15
11,CN(C)CCOc1ccc(/C(=C(/CCCl)c2ccccc2)c2ccccc2)cc1 [Toremifene Citrate],−22.88
12,CCC(=O)N1CCN(c2ccc(-n3c(=O)ccc4cnc5ccc(-c6cnc7ccccc7c6)cc5c43)cc2C(F)(F)F)CC1 [Torin 1],−32.55
13,Nc1ccc(-c2ccc3ncc4ccc(=O)n(-c5cccc(C(F)(F)F)c5)c4c3c2)cn1 [Torin 2],−37.17
14,CC(C)C[C@@H](C(=O)N[C@H](C(=O)OC1CCCC1)c1ccccc1)[C@H](O)C(=O)NO [Tosedostat],5.66
15,Cc1cc(Nc2cc(N3CCN(C)CC3)nc(Sc3ccc(NC(=O)C4CC4)cc3)n2)[nH]n1 [Tozasertib],−4.08
16,CC(=O)Nc1cccc(-n2c(=O)n(C3CC3)c(=O)c3c(Nc4ccc(I)cc4F)n(C)c(=O)c(C)c32)c1 [Trametinib],−27.77
17,C[C@]12C=CC(=O)C=C1CC[C@H]1[C@@H]3C[C@@H](O)[C@](O)(C(=O)CO)[C@@]3(C)C[C@H](O)[C@@]12F [Triamcinolone],−26.66
18,CC(/C=C/C(=O)NO)=C\[C@@H](C)C(=O)c1ccc(N(C)C)cc1 [Trichostatin A],−38.93

# Same assay, conditions: OVCAR-8; drug 100 nM; panel of 18 siRNA knockdowns
row,Structure (SMILES),"synergy / antagonism of drug with gene knockdowns, in words"
1,CCCCc1nc2cc(/C=C/C(=O)NO)ccc2n1CCN(CC)CC [Pracinostat],mostly synergistic
2,CN(C)CCOc1ccc(-c2nc(-c3ccncc3)c(-c3ccc4c(c3)CC/C4=N\O)[nH]2)cc1 [SB590885],antagonistic with multiple genes
3,CC(C)(C)c1cnc(CSc2cnc(NC(=O)C3CCNCC3)s2)o1 [SNS-032],strong synergies with multiple genes
4,CC(/C=C/C(=O)NO)=C\[C@@H](C)C(=O)c1ccc(N(C)C)cc1 [Trichostatin A],mostly synergistic

# Same assay, conditions: OVCAR-8; drug 100 nM; siRNA knockdown
row,Structure (SMILES),number of genes (of 18) whose knockdown synergizes with the drug [genes]
1,CCCCc1nc2cc(/C=C/C(=O)NO)ccc2n1CCN(CC)CC [Pracinostat],11
2,C[S+]([O-])c1ccc(-c2nc(-c3ccc(F)cc3)c(-c3ccncc3)[nH]2)cc1 (centres unmarked) [SB 203580],9
3,Cn1cnc2c(F)c(Nc3ccc(Br)cc3Cl)c(C(=O)NOCCO)cc21 [Selumetinib],16
